For 18 compounds, TGI results are on record in PubChem BioAssay (NCI).

Among the test systems are HL-60(TB) leukemia; MDA-MB-231 breast; NCI-H522 lung; NCI/ADR-RES ovarian; SK-OV-3 ovarian; SNB-19 CNS; UACC-257 melanoma; SR leukemia.
What all share (assay): NCI-60 cell line screen, 48 h

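The compound was tested at five concentrations on cells cultured in 96-well plates, with a 48-hour exposure period. TGI: concentration producing complete growth inhibition.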 Bounds are passed on as bounds.

`NS(=O)(=O)c1ccc(N=Nc2ccc(O)c(C(=O)O)c2)cc1`: the TGI with HL-60(TB) leukemia, in the assay on MDA-MB-231 breast, in the assay with NCI-H522 lung, in the assay on NCI/ADR-RES ovarian, in the assay on SK-OV-3 ovarian and in the assay on SNB-19 CNS was more than 100 µM in each case. In addition, the TGI with UACC-257 melanoma was more than 100 µM.

As to `Cc1c(O)c(=O)ccn1CCc1ccc(O)cc1`, the TGI with HL-60(TB) leukemia was 81.3 µM; with MDA-MB-231 breast, 50.3 µM; in the assay on NCI/ADR-RES ovarian, 59.5 µM; with SK-OV-3 ovarian it was more than 100 µM; in the assay with SNB-19 CNS it was more than 100 µM; in the assay on SR leukemia it was more than 100 µM. Besides, the TGI in the assay with UACC-257 melanoma is 54.8 µM.

On to `CCOC(=O)Cn1c(=O)c(C)cn(COCCO)c1=O`, for which the TGI in the assay on HL-60(TB) leukemia, in the assay on MDA-MB-231 breast, with NCI-H522 lung, with NCI/ADR-RES ovarian, with SNB-19 CNS and in the assay on UACC-257 melanoma was more than 100 µM in each case.

`COC(=O)c1cc(/C=C\c2cc(OC)ccc2OC)ccc1OC`: the TGI with MDA-MB-231 breast is more than 100 µM; in the assay with NCI-H522 lung, 45.6 µM; in the assay with NCI/ADR-RES ovarian, more than 100 µM; with SK-OV-3 ovarian it was 83.6 µM; with SNB-19 CNS it was more than 100 µM; in the assay on SR leukemia, more than 100 µM. Also, in the assay on UACC-257 melanoma, the TGI was determined as 96.5 µM.

For the compound `Cc1ccc(/C=C2/N=C(N/N=C\c3ccccc3)NC2=O)cc1`, the TGI is more than 100 µM with MDA-MB-231 breast; more than 100 µM with NCI-H522 lung; more than 100 µM in the assay with NCI/ADR-RES ovarian; more than 100 µM in the assay on SK-OV-3 ovarian; 90.5 µM with SNB-19 CNS; more than 100 µM with SR leukemia. The same compound yielded a TGI in the assay with UACC-257 melanoma of more than 100 µM.

As to `CC(C)c1ccc(/C=C2\CSCC3=C2N=C2SCC(=O)N2C3c2ccc(C(C)C)cc2)cc1` (stereo unspecified), the TGI in the assay with HL-60(TB) leukemia, in the assay on MDA-MB-231 breast, in the assay with NCI/ADR-RES ovarian, with SK-OV-3 ovarian, with SR leukemia and with UACC-257 melanoma was more than 100 µM in each case.

Take `CCOC(=O)c1cc(Br)c(-c2cc(C)co2)[nH]1`: the TGI in the assay with HL-60(TB) leukemia, in the assay with MDA-MB-231 breast, in the assay with NCI/ADR-RES ovarian, in the assay with SK-OV-3 ovarian, in the assay with SNB-19 CNS and in the assay on SR leukemia was more than 100 µM in each case. The TGI in the assay with UACC-257 melanoma is more than 100 µM.

On to `O=C(Nc1ccc(Cl)cc1)c1cc(S(=O)(=O)Nc2n[nH]c(=O)n2-c2ccccc2)c(S)cc1Cl`, for which the TGI with HL-60(TB) leukemia, with MDA-MB-231 breast, in the assay with NCI/ADR-RES ovarian, in the assay with SK-OV-3 ovarian, with SNB-19 CNS and with SR leukemia was more than 100 µM in each case. Besides, the TGI in the assay on UACC-257 melanoma is more than 100 µM.

As to `CC(C)=NOC(=O)Nc1cccc2c1OCO2`, the TGI in the assay on MDA-MB-231 breast, in the assay on NCI-H522 lung, in the assay on NCI/ADR-RES ovarian, in the assay with SK-OV-3 ovarian, in the assay on SNB-19 CNS and in the assay on UACC-257 melanoma was more than 100 µM throughout.

With `Clc1cc2nnn(C3CCCO3)c2cc1Cl` (stereo unspecified), the TGI in the assay with HL-60(TB) leukemia, in the assay on MDA-MB-231 breast, in the assay on NCI-H522 lung, with NCI/ADR-RES ovarian, in the assay on SK-OV-3 ovarian and in the assay on SR leukemia was more than 100 µM in each case. In the assay with UACC-257 melanoma, this compound registered a TGI of more than 100 µM.

Take `C(#Cc1ccccc1)SC1=C(c2ccccc2)S/C(=C(\SC#Cc2ccccc2)c2ccccc2)S1`: the TGI with MDA-MB-231 breast, in the assay with NCI-H522 lung, with NCI/ADR-RES ovarian, with SK-OV-3 ovarian, in the assay on SNB-19 CNS and with SR leukemia was more than 100 µM in each case. In the assay on UACC-257 melanoma, the TGI was more than 100 µM.

As to `COc1ccc(CNc2nc3ccccc3nc2C(=O)O)cc1`, the TGI in the assay on HL-60(TB) leukemia, in the assay on MDA-MB-231 breast, with NCI-H522 lung, in the assay on NCI/ADR-RES ovarian, in the assay with SNB-19 CNS and in the assay with SR leukemia was more than 100 µM throughout. This compound also displayed a TGI in the assay on UACC-257 melanoma of more than 100 µM.

With `C=CCNC(=S)/N=C/C(C(=O)Nc1ccccc1C)=C(\C)O`, the TGI in the assay with HL-60(TB) leukemia, with MDA-MB-231 breast, in the assay with NCI-H522 lung, with NCI/ADR-RES ovarian, in the assay on SK-OV-3 ovarian and in the assay on SNB-19 CNS was more than 100 µM throughout. In addition, the TGI with UACC-257 melanoma was more than 100 µM.

For `O=c1[nH]nc(-c2ccccc2)n1-n1cnnc1`, the TGI in the assay with MDA-MB-231 breast, in the assay with NCI-H522 lung, in the assay with NCI/ADR-RES ovarian, in the assay with SK-OV-3 ovarian, in the assay on SNB-19 CNS and in the assay with SR leukemia was more than 100 µM in each case. The compound further returned a TGI with UACC-257 melanoma of more than 100 µM.

Take `CCCCCCCCCCCCO[P+](=O)OCCCCCCCCCCCC`: the TGI in the assay on HL-60(TB) leukemia, in the assay on MDA-MB-231 breast, with NCI-H522 lung, in the assay with NCI/ADR-RES ovarian, in the assay on SK-OV-3 ovarian and in the assay on SNB-19 CNS was more than 100 µM throughout. In the assay with UACC-257 melanoma, this compound had a TGI of 62.2 µM.

As to `O=C(O)c1ccc(N/C(=C(/C(Cl)=C(Cl)Cl)[N+](=O)[O-])n2nnc3ccccc32)cc1`, the TGI with MDA-MB-231 breast, in the assay with NCI/ADR-RES ovarian, in the assay on SK-OV-3 ovarian, in the assay on SNB-19 CNS and in the assay on UACC-257 melanoma was more than 100 µM in each case.

With `C=C1CC2[C@H](C)C(=O)CCC2(C)C2=C1C1CCC(C(C)CCC(=C)C(C)C(=O)O)C1(C)CC2=O` (stereo partly specified), the TGI was 31.4 µM with HL-60(TB) leukemia; more than 100 µM in the assay with MDA-MB-231 breast; more than 100 µM in the assay with NCI-H522 lung; more than 100 µM with NCI/ADR-RES ovarian; more than 100 µM in the assay on SK-OV-3 ovarian; more than 100 µM with SNB-19 CNS. Also, the TGI in the assay with UACC-257 melanoma is 96 µM.

Take `C=C1C(=O)OC2C3OC(C)(CCC(O)C3COC(C)=O)CC(OC(=O)/C(=C/C)COC(C)=O)C12` (stereo unspecified): the TGI turned out to be 1.16 µM with MDA-MB-231 breast; 0.0749 µM in the assay on NCI-H522 lung; 11 µM in the assay with NCI/ADR-RES ovarian; 19.6 µM in the assay with SK-OV-3 ovarian; 18.3 µM with SNB-19 CNS; 0.713 µM in the assay on SR leukemia. This compound registered a TGI in the assay on UACC-257 melanoma of 1.96 µM.
